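Growth conditions: 96-well plates. Treatment: test compound, 48 hours, 5 concentrations. Analysis: linear interpolation between bracketing concentrations; unreached endpoints set to highest concentration. TGI: total growth inhibition.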
How the values were obtained:
Test in all cases: inhibition of tumour cell growth, NCI panel, 48 h
HCC-2998 colon = tested on: HCC-2998 colon
UO-31 renal = tested on: UO-31 renal
UACC-257 melanoma = tested on: UACC-257 melanoma
SF-268 CNS = tested on: SF-268 CNS
TK-10 renal = tested on: TK-10 renal
HT29 colon = tested on: HT29 colon
A498 renal = tested on: A498 renal
SK-MEL-5 melanoma = tested on: SK-MEL-5 melanoma
OVCAR-8 ovarian = tested on: OVCAR-8 ovarian
SK-MEL-2 melanoma = tested on: SK-MEL-2 melanoma
SN12C renal = tested on: SN12C renal
KM12 colon = tested on: KM12 colon
COLO 205 colon = tested on: COLO 205 colon
UACC-62 melanoma = tested on: UACC-62 melanoma
SNB-19 CNS = tested on: SNB-19 CNS
RPMI-8226 leukemia = tested on: RPMI-8226 leukemia
NCI-H460 lung = tested on: NCI-H460 lung
MDA-MB-231 breast = tested on: MDA-MB-231 breast
SNB-75 CNS = tested on: SNB-75 CNS
SK-OV-3 ovarian = tested on: SK-OV-3 ovarian
CAKI-1 renal = tested on: CAKI-1 renal
HOP-92 NSCLC = tested on: HOP-92 NSCLC
NCI-H226 lung = tested on: NCI-H226 lung
PC-3 prostate = tested on: PC-3 prostate
SF-295 CNS = tested on: SF-295 CNS
EKVX NSCLC = tested on: EKVX NSCLC
MOLT-4 leukemia = tested on: MOLT-4 leukemia
HCT-15 colon = tested on: HCT-15 colon
RXF 393 renal = tested on: RXF 393 renal
U251 CNS = tested on: U251 CNS
T-47D breast = tested on: T-47D breast
M14 melanoma = tested on: M14 melanoma
ACHN renal = tested on: ACHN renal
MCF7 breast = tested on: MCF7 breast
OVCAR-5 ovarian = tested on: OVCAR-5 ovarian
MDA-N = tested on: MDA-N
DU-145 prostate = tested on: DU-145 prostate
HOP-62 NSCLC = tested on: HOP-62 NSCLC
NCI-H522 lung = tested on: NCI-H522 lung
K-562 leukemia = tested on: K-562 leukemia
IGROV1 ovarian = tested on: IGROV1 ovarian
HS 578T breast = tested on: HS 578T breast
OVCAR-4 ovarian = tested on: OVCAR-4 ovarian
BT-549 breast = tested on: BT-549 breast
786-0 renal = tested on: 786-0 renal
NCI-H23 lung = tested on: NCI-H23 lung
LOX IMVI melanoma = tested on: LOX IMVI melanoma
SF-539 CNS = tested on: SF-539 CNS
OVCAR-3 ovarian = tested on: OVCAR-3 ovarian
A549 NSCLC = tested on: A549 NSCLC
SR leukemia = tested on: SR leukemia
CCRF-CEM leukemia = tested on: CCRF-CEM leukemia
HCT-116 colon = tested on: HCT-116 colon
MDA-MB-435 = tested on: MDA-MB-435
NCI/ADR-RES ovarian = tested on: NCI/ADR-RES ovarian
SW-620 colon = tested on: SW-620 colon

Measured: TGI

COc1cc2nc3c(=C(C#N)C#N)c4ccccc4n3c(=O)c2cc1OC
> 100 µM: all assays above
